Source: patent US20250313533A1, “QUINOLINE CARBOXYLIC ACID ESTER COMPOUND AND PREPARATION METHOD AND USE THEREOF” (priority 2019, published 2025)

Columns and labels:
[1] = system: pathogenic bacteria causing bacterial angular leaf spot in cucumbers; assay: In vitro bactericidal activity, bacterial angular leaf spot in cucumbers; format: cell-based, pseudomonas; conditions: read-out: inhibitory rate; for inhibition at 1 ppm: dosage 1 ppm; for inhibition at 5 ppm: dosage 5 ppm
[2] = system: pathogenic bacteria causing bacterial wilt in tobacco; assay: whole plant or invertebrate; format: cell-based, ralstonia; conditions: read-out: inhibitory rate
[3] = system: pathogenic bacteria causing black shank in potatoes; assay: In vitro bactericidal activity, black shank in potatoes; format: cell-based; conditions: read-out: inhibitory rate; for inhibition at 1 ppm: dosage 1 ppm; for inhibition at 5 ppm: dosage 5 ppm
[4] = system: pathogenic bacteria causing stem rot in sweet potatoes; assay: In vitro bactericidal activity, stem rot in sweet potatoes; format: cell-based, dikia; conditions: read-out: inhibitory rate; for inhibition at 1 ppm: dosage 1 ppm; for inhibition at 5 ppm: dosage 5 ppm
[5] = system: pathogenic bacteria causing bacterial blight in rice; assay: whole plant or invertebrate; format: cell-based, xanthomonas; conditions: read-out: inhibitory rate
[6] = system: pathogenic bacteria causing fruit blotch in watermelons; assay: In vitro bactericidal activity, fruit blotch in watermelons; format: cell-based, acidovorax; conditions: read-out: inhibitory rate; for inhibition at 1 ppm: dosage 1 ppm; for inhibition at 5 ppm: dosage 5 ppm
[7] = system: pathogenic bacteria causing black rot in Chinese cabbages; assay: In vitro bactericidal activity, black rot in Chinese cabbages; format: cell-based, xanthomonas; conditions: Xanthomonas, read-out: inhibitory rate; for inhibition at 1 ppm: dosage 1 ppm; for inhibition at 5 ppm: dosage 5 ppm
[8] = system: pathogenic bacteria causing bacterial wilt in cassava; assay: organism not typed; format: cell-based; conditions: read-out: inhibitory rate
[9] = system: pathogenic bacteria causing fire blight in pears; assay: In vitro bactericidal activity, fire blight in pears; format: cell-based, erwinia; conditions: Erwinia, read-out: inhibitory rate; for inhibition at 1 ppm: dosage 1 ppm; for inhibition at 5 ppm: dosage 5 ppm
[10] = system: black shank in potatoes; assay: Living crops in vivo protective activity, potatoes (root irrigation); conditions: Solanum tuberosum, read-out: efficacy against black shank in potatoes; for pest or weed control at 5 ppm: dosage 5 ppm; for pest or weed control at 10 ppm: dosage 10 ppm
Protocol: Root irrigation was carried out on the potatoes for tests according to the designed concentration of the agents. The dosage for each plant was 200 mL and was kept consistent (also for the control). The black shank bacteria were inoculated on the second day after the application. The results were investigated according to the disease condition.

[11] = system: indoor potted cucumber seedlings; assay: Effect of improving growth and development of crops; format: in vivo; parameters: Rate of growth rate increase (%): concentration or dose not given beside the values; conditions: versus blank control; for Rate of chlorophyll content increase (%) / Rate of leaf area increase (%): 14 days after application; for Rate of growth rate increase (%): plant height 14 days after application; for Rate of leaf area increase (%): second leaf
In short: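 Before treatment, plant height and the second leaf's length and width are recorded. After 14 days these are repeated, chlorophyll is read by meter, and percentage increases in growth rate, leaf area and chlorophyll are computed.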

[12] = system: cucumber seedlings; assay: Safety for plant growth after application; format: in vivo; conditions: dosage 200 ppm
In short: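 Safety to the crop is assessed on cucumber seedlings in indoor pots by tracking how treatment alters leaf area, chlorophyll level and height growth rate.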

[13] = system: bacterial wilt in tobacco; assay: whole plant or invertebrate; conditions: Nicotiana tabacum, read-out: efficacy against bacterial wilt in tobacco
[14] = system: stem rot in sweet potatoes; assay: whole plant or invertebrate; conditions: read-out: efficacy against stem rot in sweet potatoes
[15] = system: bacterial blight in rice; assay: whole plant or invertebrate; conditions: Oryza sativa, read-out: efficacy against bacterial blight in rice
[16] = system: fruit blotch in watermelons; assay: whole plant or invertebrate; conditions: read-out: efficacy against fruit blotch in watermelons
[17] = system: soft rot in Chinese cabbages; assay: whole plant or invertebrate; conditions: 48 h, read-out: efficacy against soft rot in Chinese cabbages

Compound	inhibition at 1 ppm [1]	inhibition at 5 ppm [1]	inhibition at 1 ppm [2]	inhibition at 5 ppm [2]	inhibition at 1 ppm [3]	inhibition at 5 ppm [3]	inhibition at 1 ppm [4]	inhibition at 5 ppm [4]	inhibition at 1 ppm [5]	inhibition at 5 ppm [5]	inhibition at 1 ppm [6]	inhibition at 5 ppm [6]	inhibition at 1 ppm [7]	inhibition at 5 ppm [7]	inhibition at 1 ppm [8]	inhibition at 5 ppm [8]	inhibition at 1 ppm [9]	inhibition at 5 ppm [9]	pest or weed control at 5 ppm [10]	pest or weed control at 10 ppm [10]	other results
O=C(OCCO)c1cn(C2CC2)c2cc(OCC(F)(F)F)c(F)cc2c1=O [Compound 275]	≥ 90%	≥ 90%	≥ 90%	≥ 90%	≥ 90%	≥ 90%	≥ 90%	≥ 90%	≥ 90%	≥ 90%	≥ 90%	≥ 90%	≥ 90%	≥ 90%	≥ 90%	≥ 90%	≥ 90%	≥ 90%	≥ 90%	≥ 90%	Rate of chlorophyll content increase (%) [11]: 13%; Rate of growth rate increase (%) [11]: 12%; Rate of leaf area increase (%) [11]: 11%; safety for plant growth (discoloration, necrosis, wilt, malformation) [12]: safe for plant growth; pest or weed control at 5 ppm [13]: ≥ 90%; pest or weed control at 10 ppm [13]: ≥ 90%; pest or weed control at 5 ppm [14]: ≥ 90%; pest or weed control at 10 ppm [14]: ≥ 90%; pest or weed control at 5 ppm [15]: ≥ 90%; pest or weed control at 10 ppm [15]: ≥ 90%; pest or weed control at 5 ppm [16]: ≥ 90%; pest or weed control at 10 ppm [16]: ≥ 90%; pest or weed control at 5 ppm [17]: ≥ 90%; pest or weed control at 10 ppm [17]: ≥ 90%
COCCOC(=O)c1cn(C2CC2)c2cc(OC)c(F)cc2c1=O [Compound 281]	≥ 90%	≥ 90%	≥ 90%	≥ 90%	≥ 90%	≥ 90%	≥ 90%	≥ 90%	≥ 90%	≥ 90%	≥ 90%	≥ 90%	≥ 90%	≥ 90%	≥ 90%	≥ 90%	≥ 90%	≥ 90%	≥ 90%	≥ 90%	Rate of chlorophyll content increase (%) [11]: 16%; Rate of growth rate increase (%) [11]: 13%; Rate of leaf area increase (%) [11]: 13%; safety for plant growth (discoloration, necrosis, wilt, malformation) [12]: safe for plant growth; pest or weed control at 5 ppm [13]: ≥ 90%; pest or weed control at 10 ppm [13]: ≥ 90%; pest or weed control at 5 ppm [14]: ≥ 90%; pest or weed control at 10 ppm [14]: ≥ 90%; pest or weed control at 5 ppm [15]: ≥ 90%; pest or weed control at 10 ppm [15]: ≥ 90%; pest or weed control at 5 ppm [16]: ≥ 90%; pest or weed control at 10 ppm [16]: ≥ 90%; pest or weed control at 5 ppm [17]: ≥ 90%; pest or weed control at 10 ppm [17]: ≥ 90%
COCCOC(=O)c1cn(C2CC2)c2cc(OC(C)(C)C)c(F)cc2c1=O [Compound 287]	≥ 90%	≥ 90%	≥ 90%	≥ 90%	≥ 90%	≥ 90%	≥ 90%	≥ 90%	≥ 90%	≥ 90%	≥ 90%	≥ 90%	≥ 90%	≥ 90%	≥ 90%	≥ 90%	≥ 90%	≥ 90%	≥ 90%	≥ 90%	Rate of chlorophyll content increase (%) [11]: 13%; Rate of growth rate increase (%) [11]: 10%; Rate of leaf area increase (%) [11]: 10%; safety for plant growth (discoloration, necrosis, wilt, malformation) [12]: safe for plant growth; pest or weed control at 5 ppm [13]: ≥ 90%; pest or weed control at 10 ppm [13]: ≥ 90%; pest or weed control at 5 ppm [14]: ≥ 90%; pest or weed control at 10 ppm [14]: ≥ 90%; pest or weed control at 5 ppm [15]: ≥ 90%; pest or weed control at 10 ppm [15]: ≥ 90%; pest or weed control at 5 ppm [16]: ≥ 90%; pest or weed control at 10 ppm [16]: ≥ 90%; pest or weed control at 5 ppm [17]: ≥ 90%; pest or weed control at 10 ppm [17]: ≥ 90%
COCCOC(=O)c1cn(C2CC2)c2cc(OCC(F)(F)F)c(F)cc2c1=O [Compound 292, 2-methoxyethyl 1-cyclopropyl-6-fluoro-4-oxo-7-(2,2,2-trifluoroethoxy)-1,4-dihydroquinoline-3-carboxylate]	≥ 90%	≥ 90%	≥ 90%	≥ 90%	≥ 90%	≥ 90%	≥ 90%	≥ 90%	≥ 90%	≥ 90%	≥ 90%	≥ 90%	≥ 90%	≥ 90%	≥ 90%	≥ 90%	≥ 90%	≥ 90%	≥ 90%	≥ 90%	Rate of chlorophyll content increase (%) [11]: 16%; Rate of growth rate increase (%) [11]: 15%; Rate of leaf area increase (%) [11]: 15%; safety for plant growth (discoloration, necrosis, wilt, malformation) [12]: safe for plant growth; pest or weed control at 5 ppm [13]: ≥ 90%; pest or weed control at 10 ppm [13]: ≥ 90%; pest or weed control at 5 ppm [14]: ≥ 90%; pest or weed control at 10 ppm [14]: ≥ 90%; pest or weed control at 5 ppm [15]: ≥ 90%; pest or weed control at 10 ppm [15]: ≥ 90%; pest or weed control at 5 ppm [16]: ≥ 90%; pest or weed control at 10 ppm [16]: ≥ 90%; pest or weed control at 5 ppm [17]: ≥ 90%; pest or weed control at 10 ppm [17]: ≥ 90%
COCCOC(=O)c1cn(C2CC2)c2cc(OC3CC3)c(F)cc2c1=O [Compound 294, 2-methoxyethyl 7-cyclopropoxy-1-cyclopropyl-6-fluoro-4-oxo-1,4-dihydroquinoline-3-carboxylate]	≥ 90%	≥ 90%	≥ 90%	≥ 90%	≥ 90%	≥ 90%	≥ 90%	≥ 90%	≥ 90%	≥ 90%	≥ 90%	≥ 90%	≥ 90%	≥ 90%	≥ 90%	≥ 90%	≥ 90%	≥ 90%	≥ 90%	≥ 90%	Rate of chlorophyll content increase (%) [11]: 10%; Rate of growth rate increase (%) [11]: 9%; Rate of leaf area increase (%) [11]: 12%; safety for plant growth (discoloration, necrosis, wilt, malformation) [12]: safe for plant growth; pest or weed control at 5 ppm [13]: ≥ 90%; pest or weed control at 10 ppm [13]: ≥ 90%; pest or weed control at 5 ppm [14]: ≥ 90%; pest or weed control at 10 ppm [14]: ≥ 90%; pest or weed control at 5 ppm [15]: ≥ 90%; pest or weed control at 10 ppm [15]: ≥ 90%; pest or weed control at 5 ppm [16]: ≥ 90%; pest or weed control at 10 ppm [16]: ≥ 90%; pest or weed control at 5 ppm [17]: ≥ 90%; pest or weed control at 10 ppm [17]: ≥ 90%
